From US9090628B2, “Benzoxazepin compounds selective for PI3K P110 delta and methods of use” (GENENTECH, INC., priority 2011, dated 2015)
pIC50: −log10 of the molar value.

Tests used:
p110 alpha = p110 alpha (Homo sapiens (Human), UniProt P42336); assay: PI3K isoform inhibition assay, p110 alpha (for alpha/delta selectivity); details: ratio of biochemical IC50 values
Description: (§1) PI3K enzymatic activity was assayed by measuring the amount of product phosphatidylinositol 3,4,5-phosphate (PIP3) formed from substrate 4,5 phosphatidylinositol 4,5-phosphate (PIP2) using a fluorescence polarization displacement assay. The decrease in fluorescence polarization of a fluorescent PIP3 probe is measured as it is displaced from a PIP3-binding protein GRP-1 detector by PI3K-catalyzed product. […] The kinase reactions were initiated by the addition of 40 ng/mL p110α/p85α, 300 ng/mL p110β/p85α, 40 ng/mL p110γ, or 40 ng/mL p110δ/p85α (Upstate Group, Millipore; Dundee, UK), and 10 μM PIP2 (Echelon Biosciences) to the wells. […] After 60 minutes of incubation at room temperature to allow equilibration of labeled and unlabeled PIP3 binding, the parallel and perpendicular components of the fluorescence emissions from each sample were measured at an excitation wavelength of 530 nm and an emission wavelength of 590 nm using an Envision fluorescent plate reader with a rhodamine filter (PerkinElmer Life and Analytical Sciences; Wellesley, Mass.). The assay is capable of detecting 0.1-2.0 μM PIP3 product. The IC50 values were obtained by fitting the dose-dependent inhibition data to a 4-parameter equation using Assay Explorer software (MDL, San Ramon, Calif.).
The same protocol may be used to establish IC50 values for p110α (alpha) PI3K binding.
(§2) The four Class I PI 3-kinases are cloned into baculovirus vectors as follows: […]

p110 delta = p110 delta (Homo sapiens (Human), UniProt O00329); assay: PI3K isoform inhibition assay, p110 delta (fluorescence polarization displacement); format: biochemical
Description: as §1
The Formula I compound was serially diluted in 100% DMSO. The kinase reaction was incubated for 1 h at room temperature, and the reaction was terminated by the addition of PBS. IC50 values were subsequently determined using sigmoidal dose-response curve fit (variable slope).
as §2

p110 delta, sequence (O00329 whole entry, canonical isoform): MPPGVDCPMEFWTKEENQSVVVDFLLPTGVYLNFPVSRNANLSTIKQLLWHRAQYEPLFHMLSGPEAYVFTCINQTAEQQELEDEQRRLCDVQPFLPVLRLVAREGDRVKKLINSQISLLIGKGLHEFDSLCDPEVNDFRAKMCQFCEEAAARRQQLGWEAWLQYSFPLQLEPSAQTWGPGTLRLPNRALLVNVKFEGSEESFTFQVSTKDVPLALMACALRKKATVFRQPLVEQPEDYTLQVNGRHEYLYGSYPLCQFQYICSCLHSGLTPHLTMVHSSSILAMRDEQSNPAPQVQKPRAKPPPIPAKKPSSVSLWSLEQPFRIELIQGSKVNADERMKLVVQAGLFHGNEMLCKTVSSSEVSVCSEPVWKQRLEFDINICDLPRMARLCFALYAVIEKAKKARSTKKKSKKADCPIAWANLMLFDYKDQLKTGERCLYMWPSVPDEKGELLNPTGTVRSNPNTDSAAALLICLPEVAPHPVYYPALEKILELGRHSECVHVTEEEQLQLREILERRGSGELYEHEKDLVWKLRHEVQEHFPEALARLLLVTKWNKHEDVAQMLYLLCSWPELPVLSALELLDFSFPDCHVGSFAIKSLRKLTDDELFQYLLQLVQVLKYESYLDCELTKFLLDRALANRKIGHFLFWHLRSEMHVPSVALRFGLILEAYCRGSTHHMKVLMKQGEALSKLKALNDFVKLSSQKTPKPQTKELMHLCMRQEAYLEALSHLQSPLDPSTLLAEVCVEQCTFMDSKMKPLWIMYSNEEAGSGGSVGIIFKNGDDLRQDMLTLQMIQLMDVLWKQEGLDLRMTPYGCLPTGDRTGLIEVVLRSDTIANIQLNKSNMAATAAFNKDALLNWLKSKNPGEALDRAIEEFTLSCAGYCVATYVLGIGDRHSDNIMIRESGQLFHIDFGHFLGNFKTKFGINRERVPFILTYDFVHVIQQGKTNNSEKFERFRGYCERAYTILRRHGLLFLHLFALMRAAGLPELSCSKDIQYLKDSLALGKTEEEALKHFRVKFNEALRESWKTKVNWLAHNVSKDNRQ
p110 delta, sequence (P27986 whole entry partner, canonical isoform): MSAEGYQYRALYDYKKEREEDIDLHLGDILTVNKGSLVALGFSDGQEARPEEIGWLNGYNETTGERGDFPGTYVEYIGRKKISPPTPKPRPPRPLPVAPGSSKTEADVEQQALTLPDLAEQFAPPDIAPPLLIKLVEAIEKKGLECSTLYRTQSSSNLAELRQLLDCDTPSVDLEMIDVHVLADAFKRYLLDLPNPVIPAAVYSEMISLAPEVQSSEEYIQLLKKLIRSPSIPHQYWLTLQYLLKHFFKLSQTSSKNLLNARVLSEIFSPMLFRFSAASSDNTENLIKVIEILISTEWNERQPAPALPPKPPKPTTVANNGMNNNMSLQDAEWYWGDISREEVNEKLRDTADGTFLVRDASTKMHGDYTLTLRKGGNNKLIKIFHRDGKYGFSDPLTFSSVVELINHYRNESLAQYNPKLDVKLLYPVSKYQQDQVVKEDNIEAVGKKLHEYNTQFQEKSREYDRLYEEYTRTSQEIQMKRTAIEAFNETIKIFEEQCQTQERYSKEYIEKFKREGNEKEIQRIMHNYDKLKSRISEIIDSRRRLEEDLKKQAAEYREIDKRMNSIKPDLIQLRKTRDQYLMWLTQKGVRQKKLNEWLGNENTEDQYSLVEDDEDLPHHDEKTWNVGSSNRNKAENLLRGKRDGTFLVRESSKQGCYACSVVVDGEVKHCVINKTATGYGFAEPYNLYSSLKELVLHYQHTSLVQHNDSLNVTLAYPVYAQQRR
p110 alpha, sequence (P42336 whole entry, canonical isoform): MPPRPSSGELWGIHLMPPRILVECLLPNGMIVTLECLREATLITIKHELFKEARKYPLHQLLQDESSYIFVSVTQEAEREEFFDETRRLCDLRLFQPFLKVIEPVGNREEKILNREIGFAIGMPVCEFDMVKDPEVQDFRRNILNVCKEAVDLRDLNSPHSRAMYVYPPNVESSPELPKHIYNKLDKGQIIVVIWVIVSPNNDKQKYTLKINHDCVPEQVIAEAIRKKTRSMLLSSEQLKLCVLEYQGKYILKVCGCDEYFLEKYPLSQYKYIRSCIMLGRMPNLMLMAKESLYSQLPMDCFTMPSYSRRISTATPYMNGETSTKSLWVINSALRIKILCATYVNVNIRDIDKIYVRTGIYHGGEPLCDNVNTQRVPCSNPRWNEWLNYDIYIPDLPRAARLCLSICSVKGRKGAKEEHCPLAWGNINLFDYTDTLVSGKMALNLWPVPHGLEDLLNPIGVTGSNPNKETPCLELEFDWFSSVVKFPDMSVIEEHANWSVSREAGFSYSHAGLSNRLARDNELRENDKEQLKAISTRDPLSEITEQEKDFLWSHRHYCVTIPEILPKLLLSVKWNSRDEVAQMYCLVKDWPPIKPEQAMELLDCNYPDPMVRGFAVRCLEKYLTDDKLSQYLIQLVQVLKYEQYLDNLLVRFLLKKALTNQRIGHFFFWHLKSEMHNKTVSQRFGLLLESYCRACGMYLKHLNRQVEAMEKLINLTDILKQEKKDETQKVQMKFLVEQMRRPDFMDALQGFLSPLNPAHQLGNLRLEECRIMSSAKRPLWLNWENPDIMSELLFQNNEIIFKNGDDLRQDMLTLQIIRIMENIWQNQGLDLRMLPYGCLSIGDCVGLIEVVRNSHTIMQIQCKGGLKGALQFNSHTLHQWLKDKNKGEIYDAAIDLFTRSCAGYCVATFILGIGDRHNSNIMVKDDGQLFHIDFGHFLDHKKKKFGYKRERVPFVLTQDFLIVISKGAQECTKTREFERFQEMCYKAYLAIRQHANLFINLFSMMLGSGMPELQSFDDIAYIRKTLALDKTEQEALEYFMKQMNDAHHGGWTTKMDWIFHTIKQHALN
p110 alpha, sequence (P27986 whole entry partner, canonical isoform): as the sequence (P27986 whole entry partner, canonical isoform) above

Cc1nc(-c2cn3c(n2)-c2ccc(OC4(CC5CC5)CN(C(C)C)C4)cc2OCC3)n(C(C)C)n1 [Example 283, 9-[3-(cyclopropylmethyl)-1-isopropyl-azetidin-3-yl]oxy-2-(2-isopropyl-5-methyl-1,2,4-triazol-3-yl)-5,6-dihydroimidazo[1,2-d][1,4]benzoxazepine]
IC50 p110 alpha/IC50 p110 delta (p110 alpha): 75.5
pIC50 (p110 delta): 9.03

Cc1nc(-c2cn3c(n2)-c2ccc(OC4(CC5CC5)CNC4)cc2OCC3)n(C(C)C)n1 [Example 284, 9-[3-(cyclopropylmethyl)azetidin-3-yl]oxy-2-(2-isopropyl-5-methyl-1,2,4-triazol-3-yl)-5,6-dihydroimidazo[1,2-d][1,4]benzoxazepine]
IC50 p110 alpha/IC50 p110 delta (p110 alpha): 23.9
pIC50 (p110 delta): 8.54

Cc1nc(-c2cn3c(n2)-c2ccc(-c4ccnn4C4CCCN(C5(C)COC5)C4)cc2OCC3)n(C(C)C)n1 (centres unmarked) [Example 285, 2-(2-isopropyl-5-methyl-1,2,4-triazol-3-yl)-9-[2-[1-(3-methyloxetan-3-yl)-3-piperidyl]pyrazol-3-yl]-5,6-dihydroimidazo[1,2-d][1,4]benzoxazepine]
IC50 p110 alpha/IC50 p110 delta (p110 alpha): 31.9
pIC50 (p110 delta): 8.86

Cc1nc(-c2cn3c(n2)-c2ccc(-c4cnn(C)c4C4CCCCN4CC(C)(C)O)cc2OCC3)n(C(C)C)n1 (centres unmarked) [Example 289, 1-[2-[4-[2-(2-isopropyl-5-methyl-1,2,4-triazol-3-yl)-5,6-dihydroimidazo[1,2-d][1,4]benzoxazepin-9-yl]-2-methyl-pyrazol-3-yl]-1-piperidyl]-2-methyl-propan-2-ol]
IC50 p110 alpha/IC50 p110 delta (p110 alpha): 13.1
pIC50 (p110 delta): 9.07

CC(C)n1nc(CO)nc1-c1cn2c(n1)-c1ccc(-c3ccnn3C3CCN(C)CC3)cc1OCC2 [Example 290, [1-isopropyl-5-[9-[2-(1-methyl-4-piperidyl)pyrazol-3-yl]-5,6-dihydroimidazo[1,2-d][1,4]benzoxazepin-2-yl]-1,2,4-triazol-3-yl]methanol]
IC50 p110 alpha/IC50 p110 delta (p110 alpha): 15.9
pIC50 (p110 delta): 8.62

Cc1nc(-c2cn3c(n2)-c2ccc(N4CCC4C4CCN(C(C)C)CC4)cc2OCC3)n(C(C)C)n1 (centres unmarked) [Example 293, 2-(2-isopropyl-5-methyl-1,2,4-triazol-3-yl)-9-[2-(1-isopropyl-4-piperidyl)azetidin-1-yl]-5,6-dihydroimidazo[1,2-d][1,4]benzoxazepine]
IC50 p110 alpha/IC50 p110 delta (p110 alpha): 10.3
pIC50 (p110 delta): 8.83

Cc1nc(-c2cn3c(n2)-c2cc([C@@H](C)N4CCN(C(C)(C)C)CC4)c(F)cc2OCC3)n(C(C)C)n1 [Example 294, (R)-10-(1-(4-tert-butylpiperazin-1-yl)ethyl)-9-fluoro-2-(1-isopropyl-3-methyl-1H-1,2,4-triazol-5-yl)-5,6-dihydrobenzo[f]imidazo[1,2-d][1,4]oxazepine]
IC50 p110 alpha/IC50 p110 delta (p110 alpha): 479
pIC50 (p110 delta): 9.11

Cc1nc(-c2cn3c(n2)-c2ccc(-c4ccnn4C4CCN(C(C)C)CC4)cc2OCC3)n(C(C)C)n1 [Example 296, 2-(2-isopropyl-5-methyl-1,2,4-triazol-3-yl)-9-[2-(1-isopropyl-4-piperidyl)pyrazol-3-yl]-5,6-dihydroimidazo[1,2-d][1,4]benzoxazepine]
IC50 p110 alpha/IC50 p110 delta (p110 alpha): 31.5
pIC50 (p110 delta): 8.97

Cc1nc(-c2cn3c(n2)-c2cc([C@H](C)N4CCN(C(C)(C)C)CC4)c(F)cc2OCC3)n(C(C)C)n1 [Example 297, (S)-10-(1-(4-tert-butylpiperazin-1-yl)ethyl)-9-fluoro-2-(1-isopropyl-3-methyl-1H-1,2,4-triazol-5-yl)-5,6-dihydrobenzo[f]imidazo[1,2-d][1,4]oxazepine]
IC50 p110 alpha/IC50 p110 delta (p110 alpha): 102
pIC50 (p110 delta): 8.62

CC(C)n1nc(N)nc1-c1cn2c(n1)-c1ccc(-c3ccnn3C3CCN(C)CC3)cc1OCC2 [Example 298, 1-isopropyl-5-[9-[2-(1-methyl-4-piperidyl)pyrazol-3-yl]-5,6-dihydroimidazo[1,2-d][1,4]benzoxazepin-2-yl]-1,2,4-triazol-3-amine]
IC50 p110 alpha/IC50 p110 delta (p110 alpha): 54.6
pIC50 (p110 delta): 9.15
